Experiments:
Assay in all cases: relative viability (nuclei count vs DMSO), 5 days (fraction); higher = more cells survive
[1] = compound: CN[C@@H]1C[C@H]2O[C@@](C)([C@@H]1OC)n1c3ccccc3c3c4c(c5c6ccccc6n2c5c31)C(=O)NC4 [Staurosporine] + CCNC(=O)c1noc(-c2cc(C(C)C)c(O)cc2O)c1-c1ccc(CN2CCOCC2)cc1 [Luminespib] (partner 0.01 µM)
In short: (§1)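 The day after seeding in 1536-well plates, lung cancer cell lines were treated by pin tool with a single drug, or with a fixed anchor-drug dose together with five library-drug doses (not always all listed) in √10 steps. After 5 days, a combined fix-and-stain solution (final 0.05% Triton X-100, 1% formaldehyde, 1 ug/ml Hoechst) was added. Nuclei counted on 4× images gave relative viability as treated counts over vehicle counts, reported as the median of duplicate plates.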

[2] = compound: CC1=C(CC(=O)O)c2cc(F)ccc2/C1=C\c1ccc([S+](C)[O-])cc1 [Sulindac] + CC(=O)Nc1cccc(-n2c(=O)n(C3CC3)c(=O)c3c(Nc4ccc(I)cc4F)n(C)c(=O)c(C)c32)c1 [Trametinib] (partner 0.02 µM)
In short: as §1

[3] = compound: CN[C@@H]1C[C@H]2O[C@@](C)([C@@H]1OC)n1c3ccccc3c3c4c(c5c6ccccc6n2c5c31)C(=O)NC4 [Staurosporine] + NC(=O)Nc1cc(-c2cccc(F)c2)sc1C(=O)N[C@H]1CCCNC1 [AZD7762] (partner 0.2 µM)
In short: as §1

[4] = compound: CC1=C(CC(=O)O)c2cc(F)ccc2/C1=C\c1ccc([S+](C)[O-])cc1 [Sulindac] + Nc1nc2[nH]cc(CCc3ccc(C(=O)N[C@@H](CCC(=O)O)C(=O)O)cc3)c2c(=O)[nH]1 [Pemetrexed] (partner 0.2 µM)
In short: as §1

Cell Line | relative viability ([1]; first compound 0.005 µM) | relative viability ([1]; first compound 0.01581 µM) | relative viability ([1]; first compound 0.05 µM) | relative viability ([1]; first compound 0.1581 µM) | relative viability ([1]; first compound 0.5 µM) | relative viability ([2]; first compound 0.08 µM) | relative viability ([2]; first compound 0.253 µM) | relative viability ([2]; first compound 0.8 µM) | relative viability ([2]; first compound 2.53 µM) | relative viability ([2]; first compound 8 µM) | relative viability ([3]; first compound 0.005 µM) | relative viability ([3]; first compound 0.01581 µM) | relative viability ([3]; first compound 0.05 µM) | relative viability ([3]; first compound 0.1581 µM) | relative viability ([3]; first compound 0.5 µM) | relative viability ([4]; first compound 0.08 µM) | relative viability ([4]; first compound 0.253 µM) | relative viability ([4]; first compound 0.8 µM) | relative viability ([4]; first compound 2.53 µM) | relative viability ([4]; first compound 8 µM)
NCI-H522 | 1.2 | 1.14 | 0.719 | 0.758 | 0.751 | 0.628 | 0.75 | 0.547 | 0.747 | 0.734 | 0.953 | 0.866 | 0.715 | 0.639 | 0.404 | 0.859 | 0.985 | 1.05 | 0.88 | 0.96
NCI-H1944 | 0.928 | 0.507 | 0.41 | 0.44 | 0.187 | 0.476 | 0.418 | 0.328 | 0.421 | 0.487 | 0.349 | 0.25 | 0.275 | 0.177 | 0.192 | 0.701 | 0.636 | 0.412 | 0.582 | 0.722
PC-14 | 0.11 | 0.101 | 0.103 | 0.132 | 0.118 | 0.908 | 0.772 | 0.745 | 0.779 | 1.01 | 0.302 | 0.0766 | 0.0421 | 0.0892 | 0.0415 | 0.122 | 0.118 | 0.162 | 0.13 | 0.147
NCI-H1650 | 0.168 | 0.18 | 0.183 | 0.16 | 0.169 | 0.599 | 0.794 | 0.445 | 0.491 | 0.766 | – | – | – | – | – | 0.443 | 0.391 | 0.349 | 0.377 | 0.385
HCC-827 | 0.997 | 0.532 | 0.13 | 0.139 | 0.121 | 0.525 | 0.571 | 0.526 | 0.489 | 0.506 | 0.204 | 0.179 | 0.153 | 0.143 | 0.115 | 0.286 | 0.282 | 0.249 | 0.241 | 0.26
HCC-366 | – | – | – | – | – | 0.359 | 0.384 | – | 0.357 | 0.396 | 0.255 | – | 0.165 | 0.0217 | 0.0248 | 0.205 | 0.183 | – | 0.14 | 0.172
HARA | 0.697 | – | 0.297 | 0.0959 | 0.0973 | 0.516 | 0.926 | 0.777 | 0.715 | 0.735 | 0.278 | 0.169 | 0.262 | – | 0.029 | 0.237 | 0.257 | 0.242 | 0.239 | 0.288
NCI-H441 | 0.36 | 0.216 | 0.195 | 0.231 | 0.148 | 0.423 | 0.579 | 0.331 | 0.492 | 0.494 | 0.86 | 0.538 | 0.315 | 0.293 | 0.165 | 0.251 | 0.255 | 0.286 | 0.244 | 0.253
LXF-289 | 0.584 | 0.13 | 0.246 | 0.0904 | 0.0899 | 0.745 | 0.713 | 0.666 | 0.695 | 0.686 | 0.903 | 0.157 | 0.298 | 0.0835 | 0.0894 | 0.99 | 0.876 | 0.806 | 0.9 | 0.942
SK-LU-1 | 0.156 | 0.117 | – | 0.117 | 0.108 | 0.657 | 0.486 | 0.435 | 0.398 | 0.529 | – | – | – | – | – | 1.13 | 1.05 | 0.821 | 1.02 | 1.02
CAL-12T | 0.0969 | 0.0675 | 0.0596 | 0.109 | 0.109 | 0.285 | 0.357 | 0.343 | 0.312 | 0.361 | 0.416 | 0.338 | 0.409 | 0.257 | 0.167 | 1.18 | 1.1 | 1.24 | 1.14 | 1.44
COR-L 105 | 0.364 | 0.277 | 0.192 | 0.253 | 0.161 | 0.374 | 0.472 | 0.445 | 0.45 | 0.449 | – | – | – | – | – | 1.31 | 1.14 | 0.979 | 1.21 | 1.2
NCI-H2405 | 0.282 | 0.148 | 0.0814 | 0.112 | 0.0639 | 0.687 | 0.668 | 0.581 | 0.634 | 0.731 | 0.239 | 0.141 | 0.112 | – | 0.0865 | 1.14 | 1.17 | 0.971 | 0.926 | 1.15
NCI-H2228 | 0.0928 | 0.122 | 0.0907 | 0.0947 | 0.0857 | 0.621 | 0.675 | 0.5 | 0.523 | 0.364 | – | – | – | – | – | 0.376 | 0.445 | 0.289 | 0.371 | 0.319
PC-3 [JPC-3] | 0.628 | 0.474 | 0.319 | 0.323 | 0.272 | 0.668 | 0.659 | 0.701 | 0.695 | 0.725 | 0.829 | 0.472 | 0.357 | 0.327 | 0.332 | 1.07 | 1.04 | 0.738 | 1.07 | 1.19
